Results published in patent US20030021772A1 (priority 2001, published 2003).

Assays:
[1] = tested on: effects of jet lag and sleep deprivation on human beings; assay: CogScreen Dual Task Test: Tracking Alone (psychomotor functioning); format: in vivo; conditions: sublingual NADH 20 mg, 31% at baseline
Experimental: (§1) The efficacy of a stabilized, sublingual form of reduced nicotinamide adenine dinucleotide (NADH, available commercially under the name ENADA® from Menuco Corp.) as a treatment for the effects of jet lag and sleep deprivation on human beings was examined. Healthy individuals were treated with NADH on the day following an overnight flight across North America, and the effects of NADH on their cognitive functioning were monitored. Although the sublingual form of NADH was used in these examples, any of the aforementioned forms of NADH could have been employed.
(§2) The subjects in these examples were volunteers between 35 and 55 years of age, and were in good general physical health. […] In addition, subjects were required to have a normal day/night sleep schedule in their home time zone, and to have an Epworth Sleepiness Scale rating >8 at baseline (“baseline” being the testing in San Diego on the day of the flight) (see E. Hoddes et al., Quantification of Sleepiness: A New Approach, Psychophysiology (1973), 10(4):431-6). […]
(§3) Subjects arrived at the San Diego, Calif. test site at 1200 hours on the day of the flight. […] Subjects were transported to the San Diego Airport and flown to Phoenix, Ariz. where they were shuttled to a conference room at a nearby hotel, provided dinner, and readministered the battery of tests at approximately 2030 hours. […]

[2] = tested on: effects of jet lag and sleep deprivation on human beings; assay: CogScreen Matching to Sample Test; format: in vivo; conditions: sublingual NADH 20 mg; baseline to PM; placebo 1.0; P=0.078
Experimental: as §1, §2, §3

[3] = tested on: effects of jet lag and sleep deprivation on human beings; assay: Kay Continuous Performance Test (KCPT), sustained attention and vigilance; format: in vivo; conditions: sublingual NADH 20 mg
Experimental: as §1
The subjects in these examples were volunteers between 35 and 55 years of age, and were in good general physical health. At a screening visit, subjects were urine tested to screen for the use of illicit drugs and pregnancy. […] In addition, subjects were required to have a normal day/night sleep schedule in their home time zone, and to have an Epworth Sleepiness Scale rating >8 at baseline (“baseline” being the testing in San Diego on the day of the flight) (see E. Hoddes et al., Quantification of Sleepiness: A New Approach, Psychophysiology (1973), 10(4):431-6). […]
as §3
(§4) Sublingual NADH 20 mg (4 tablets of sublingual ENADAlert™ 5 mg) or an equal number of identical placebo tablets were administered by study site personnel to the subjects upon their arrival at the Washington test site. At the test site, subjects' activities were carefully monitored to avoid dehydration, exposure to daylight (subjects were kept indoors) and hunger (they were provided breakfast and lunch, which all subjects ate). […]

[4] = tested on: effects of jet lag and sleep deprivation on human beings; assay: CCAB Mark Numbers Test (divided attention); format: in vivo; conditions: sublingual NADH 20 mg
Experimental: as §1, §2, §3

[5] = tested on: effects of jet lag and sleep deprivation on human beings; assay: Walter Reed Mood Scale self-report; format: in vivo; conditions: sublingual NADH 20 mg
Experimental: as §1, §2, §3

[6] = tested on: effects of jet lag and sleep deprivation on human beings; assay: Stanford Sleepiness Scale self-report; format: in vivo; conditions: sublingual NADH 20 mg
Experimental: as §1
The subjects in these examples were volunteers between 35 and 55 years of age, and were in good general physical health. At a screening visit, subjects were urine tested to screen for the use of illicit drugs and pregnancy. Cognitive screening with the Trail Making Test and Symbol Digit Modalities Test (see M. D. Lezak, Neuropsychological Assessment, 3rd ed., Oxford University Press (1995)) was used to exclude subjects with cognitive function test scores>1 SD below the mean for their age. Subjects were required to be gainfully employed, to have completed 14 years of formal education, and to have none of the following conditions: history of substance abuse, obesity (body mass index>30 kg/m^2), air sickness, pregnancy, nicotine use (within 6-months), mental health disorder (within 1 year), or sleep disorder. In addition, subjects were required to have a normal day/night sleep schedule in their home time zone, and to have an Epworth Sleepiness Scale rating >8 at baseline (“baseline” being the testing in San Diego on the day of the flight) (see E. Hoddes et al., Quantification of Sleepiness: A New Approach, Psychophysiology (1973), 10(4):431-6). Subjects were not permitted to be taking antidepressant medications, CNS stimulants, neuroleptics, Ginseng, Gingko Biloba, melatonin, phosphatylcholine, -acetyl carnatene, or other medications/nutritional supplements reported to enhance cognitive functioning within 90 days of the study. During the study, subjects were not permitted to use caffeine, alcohol or to take any prescription or over-the-counter medications known to enhance or depress CNS functioning.
Subjects arrived at the San Diego, Calif. test site at 1200 hours on the day of the flight. The study protocol was reviewed with the subjects and they were then each issued a laptop computer (IBM Thinkpad Model 760) and familiarized with the tests and measures to be used in the study. At approximately 1500 hours subjects were administered the entire battery of tests to establish their baseline performance (“baseline”). Subjects also received training in the method for taking the sublingual tablets. Subjects were transported to the San Diego Airport and flown to Phoenix, Ariz. where they were shuttled to a conference room at a nearby hotel, provided dinner, and readministered the battery of tests at approximately 2030 hours. Subjects were shuttled back to the airport and boarded a flight to Baltimore, Md. at 2230 hours. Thirty minutes into the flight the subjects were instructed to complete a subset of the battery of tests. Subjects were permitted to sleep after completing the tests. The duration of the flight from Phoenix to Baltimore is approximately 4 hours. Furthermore, there is a 3-hour time difference between San Diego and Baltimore. The local time in Baltimore upon arrival was approximately 0600 hours. After breakfast, subjects were shuttled to the Washington, D.C. test site where they arrived at approximately 0800 hours.
as §4

[7] = tested on: effects of jet lag and sleep deprivation on human beings; assay: CogScreen Shifting Attention Test: Instruction Condition (working memory); format: in vivo; conditions: sublingual NADH 20 mg
Experimental: as §1, §2, §3

[8] = tested on: effects of jet lag and sleep deprivation on human beings; assay: CogScreen Visual Sequence Comparison Test (visual perceptual speed and accuracy); format: in vivo; conditions: sublingual NADH 20 mg; PM test vs baseline; placebo 1.4; P=0.026
Experimental: as §1, §2, §3

[9] = Stability at acidic pH; format: physicochemical; conditions: pHs below 7, as in the human stomach
From the text: Therefore, when used in oral form, these substances must be coated with an acid-stable protective film so that they can survive the stomach environment for subsequent absorption by the intestine. Suitable acid-stable coatings are known in the art and can be applied by a conventional coating process after the active ingredients are formed into a tablet or capsule. Examples of suitable coatings are: cellulose acetate phthalate; polyvinylacetate phthalate; hydroxyl-propyl-methyl cellulose phthalate; methacryllic acid copolymers; fat-wax; shellac; zein; aqua-coating; and surerelease. Another possibility for the coating is a solution of a phthalate and a lack dry substance in isopropanol. An example of a suitable lack dry substance is sold under the name […]™ by Rohm Pharma. Alternatively, a protein coating in an aqueous medium may be applied. However, a sugar-coating should not be used because it will destabilize NADH.

[10] = tested on: human beings; assay: Adverse effects (headaches) during the jet lag study; format: in vivo; conditions: sublingual NADH 20 mg
Experimental: as §1, §2, §3

[11] = tested on: effects of jet lag and sleep deprivation on human beings; assay: ANAM Running Memory Test (vigilance, working memory) after overnight flight; format: in vivo; conditions: sublingual NADH 20 mg
Experimental: as §1, §2, §3

[12] = tested on: effects of jet lag and sleep deprivation on human beings; assay: ANAM Math Test (working memory, math reasoning); format: in vivo; conditions: sublingual NADH 20 mg
Experimental: as §1, §2, §3

- stability at pHs below 7 [9]: very unstable
Structure (SMILES): NC(=O)C1=CN([C@@H]2O[C@H](COP(=O)(O)OP(=O)(O)OC[C@H]3O[C@@H](n4cnc5c(N)ncnc54)[C@H](O)[C@@H]3O)[C@@H](O)[C@H]2O)C=CC1 [NADH, reduced nicotinamide adenine dinucleotide]
- subjects with tracking failures ([1]; AM test, placebo 41%): 33%
- subjects with tracking failures ([1]; PM test, placebo 29%, P<0.09): 11%
- more correct responses per minute (Matching to Sample throughput) [2]: 4.9 correct responses per minute
- subjects with normal baseline performance who made two or more errors on KCPT ([3]; AM test, 90 min after dosing, placebo 44%): 36%
- subjects who had resumed a normal level of KCPT performance ([3]; PM test, placebo 63%, P<0.08): 86%
- subjects with omission errors on the KCPT ([3]; afternoon, placebo 37%): 14%
- increase of Mark Numbers Test Total Score ([4]; PM test, placebo 19.2 points, P=0.011): 77.5 points
- decrease of secondary task reaction time, Mark Numbers Test ([4]; baseline to AM, placebo increased by 0.44 seconds, P=0.016): 0.15 s
- self-reported fatigue and activity level, difference between NADH and placebo groups [5]: no significant differences
- subjects reporting an increase in sleepiness compared to baseline ([6]; AM test session, placebo 62.5%): 57.1%
- subjects with Stanford Sleepiness Scale rating of 1 or 2 ([6]; AM test, 82% at baseline, placebo identical): 35%
- subjects with Stanford Sleepiness Scale rating of 3 or more ([6]; AM test, placebo identical): 65%
- subjects no longer reporting an increase in sleepiness relative to baseline ([6]; PM test session, placebo 25%): 57.7%
- number of subjects with Stanford Sleepiness Scale rating of 1 or 2 ([6]; PM test, 17 subjects, placebo four, p=0.07): eight
- number of subjects with Stanford Sleepiness Scale rating of 3 or more ([6]; PM test, 17 subjects, placebo thirteen): nine
- subjects reporting no sleepiness ([6]; afternoon test, with 11 additional subjects (n=46), placebo 18%, P<0.02): 48%
- more problems correctly completed per minute vs. baseline (Shifting Attention Test throughput) ([7]; AM test vs baseline, placebo 6.8, Group x Session P<0.05): 13.2 problems per minute
- Shifting Attention Test: Instruction Condition accuracy ([7]; AM test, 92.5% at baseline, placebo 93% to 91%): 95%
- more items correctly completed per minute vs baseline (Visual Sequence Comparison throughput) [8]: 5.4 items per minute
- adverse effects attributable to treatment [10]: no adverse effects
- mean accuracy on the Running Memory Test ([11]; afternoon (PM) test, placebo 91%): 96%
- Running Memory accuracy ([11]; stable across all three sessions (baseline, AM, PM), 14 subjects, Group x Session P=0.036, placebo dropped 95% to 91%): approximately 96%
- ANAM Math Test throughput improvement relative to baseline ([12]; AM test, placebo 6%, Group x Session P<0.07): 15%
- ANAM Math Test throughput improvement relative to baseline ([12]; PM test, placebo 4%): 11%
